Values after ≈ are worked out from the molar mass of the structure shown. Where a name gives a salt, the structure may show the parent alone. Read-outs that look alike come from different tables or passages of the source.
Columns and labels:
[1] = physchem; format: physicochemical
Method: To validate the method of test agent recovery from the skin, solutions (1.0 mg/mL) of each vitamin D analogue were prepared in 100% PG. The precise concentrations in these samples were analysed by HPLC method described above. To assess the chemical stability of each test agent in the donor solutions used in the Franz cell experiments, 1.0 mg/mL of the samples prepared in 100% PG were incubated in a water bath at 37° C. for 24 h. In addition, to understand the chemical stability of each test agent in the extraction solvents used in the skin deposition studies, 1 mL of the drug sample in 100% PG was added into 10 mL of extraction fluid (MeOH for cholecalciferol, cholecalciferol phosphate acid, and MeOH:water, 90:10 for cholecalciferol phosphate disodium salt). Samples in PG (n=3) and samples in PG with the extraction fluid (n=3) were left in the water bath overnight at 37° C. and the sample concentration was analysed by the HPLC method described above. To assess whether the HPLC fluid had been impacted by any proteins that had leaked out of the skin, PG:water, 80:20 was added to donor and receiver chambers of porcine skin loaded Franz cells (n=3). A 5 mL sample of the receiver fluid was collected, and 25 μL of each test solution was added to this fluid and diluted to MeOH (1:1) and analysed by the HPLC method described previously. To verify the percentage of drug that could be recovered from the skin tissue, the skin sections were dermatomed (1 mm thickness) (n=3). The test solutions were spiked (50 μL) into a sample bottle containing the chopped dermatomed skin tissue. The samples containing the spiked drugs were left for 1 h for the drugs to absorb into the tissues. After the 1 h incubation period, 5 mL of extraction fluid (MeOH for cholecalciferol, cholecalciferol phosphate acid, and MeOH:water, 90:10 for cholecalciferol phosphate disodium salt) was added into each piece of the dermatomed skin tissue, then incubated in a shaking water bath for 1 h. The solutions were then tissue lysed by a tissue lyser for 40 min and homogenised by Ultra Turrax for 1 min and filtered using 0.45 μm syringe filters, centrifuged for 10 min at 13,000 rpm, and analysed by the HPLC method described above. In terms of cholecalciferol phosphate acid, after 1 h incubation and adding 5 mL extraction fluid, immediately the solutions with skin tissues were tissue lysed by a tissue lyser for 15 min. The solutions were then centrifuged for 10 min at 13,000 rpm and the supernatants were analysed by the HPLC method described above.

[2] = in vitro; format: in vitro ADME, porcine; details: for total penetration into / deposited in the skin: vehicle 100% PG, 0.25 mm porcine skin
Method: Donor solutions (2.5 mg/mL, 100,000 IU), which is an infinite dose, containing cholecalciferol and cholecalciferol phosphate disodium prepared according to Example 1, were compared to PG:EtOH (50:50) for cholecalciferol and 100% water for cholecalciferol phosphate.
The Franz diffusion cell was used to investigate the permeation of cholecalciferol and cholecalciferol phosphate through porcine skin. Fresh white adult porcine ears were obtained and any damaged ears were discarded. The ears were removed from the carcass after hair removal. The ears were washed with deionised water, the residual water on the skin surface was immediately removed by blotting with a tissue, visible hairs were trimmed carefully, and the ears were stored at −20° C. for no longer than 30 days until required. On the day of the experiment the skin was defrosted, and the subcutaneous fat was removed using a scalpel. The tissue was cut into the appropriate size sections (0.25 mm thick, 2.19±0.21 cm^2) to be mounted with the stratum corneum (SC) facing the donor compartment between donor and receiver compartments of Franz diffusion cells. The pieces of skins were sealed between the two compartments using parafilm, and 12 mm magnetic follows was placed into the receiver compartment. The receiver compartment in the Franz diffusion cell was filled with 100% PG for cholecalciferol; and a 1:1 mixture of PG: (MeOH:PBS ([…]), 90:10) for cholecalciferol phosphate (9.23±0.23 mL). The cell sealing was confirmed by cell inversion and monitoring solvent back diffusion. Sink conditions were maintained throughout the transport assays. The temperature of the Franz diffusion was maintained at 37° C. in a water bath, to set up the skin temperature 32° C. (Maddock, W. G. and Coller, F. A., ([…]) The role of the extremities in the dissipation of heat, American Journal of Physiology-Legacy Content, 106(3), 589-596). After 1 h equilibration at 37° C. in the water bath, 1 mL of receiver fluid was taken at time points 0 in 30 min and a fresh 100% PG was replaced to keep the volume content, and 1 mL of each formulation was applied in the donor compartment. After 24 h, the receiver fluid was collected and analysed by HPLC methods.
At the end of the transport studies, the Franz cells were dismantled, and the donor solution was collected into bottles containing 10 mL of extraction fluid; PG:EtOH (50:50) for cholecalciferol and MeOH:water (90:10) for cholecalciferol phosphate, by wiping the surface of the skin and inside of the donor compartment with two wet and then two dry cotton buds. The SC was removed from the epidermis by tape stripping. A 300 mg weight was used onto the skin to press the adhesive tape to apply defined pressure for 10 sec. A piece of tape that can cover the diffusion area was used to remove the SC. The first two pieces of tape were added into the donor solution, as the first 2 strips were considered as part of the applied formulation and its removal was part of the formulation wash off (Primo, F. L. et al., (2008) In vitro studies of cutaneous retention of magnetic nanoemulsion loaded with zinc phthalocyanine for synergic use in skin cancer treatment, Journal of Magnetism and Magnetic Materials, 320(14), e211-e214.; Sheth, N. V. et al., (1987) Measurement of the stratum corneum drug reservoir to predict the therapeutic efficacy of topical iododeoxyuridine for herpes simplex virus infection. Journal of investigative dermatology, 89(6), 598-602). The next 20 pieces of tapes were added into bottles containing 10 mL of extraction fluid. The epidermis was removed from the dermis and cut into small pieces by scalpels, placed in bottles containing 2 mL of extraction fluid. Furthermore, the dermis was cut into small pieces and was placed in bottles containing 2 mL of extraction fluid. […]

[3] = patch pre-formulation, saturated concentration in adhesive; format: physicochemical; details: DURO-TAK 87-2051 adhesive; phosphate disodium salt
Method: To each solution, 175 μL of the transdermal adhesive DURO-TAK 87-2051 (51.5 w/v %) was added, and vortexed. Then 2.0 μL of α-tocopherol and 2.5 μL of diethylene glycol monoethyl ether were added and vortexed. The visual solubility was assessed.
To this solution 4 mg of α-tocopherol in 3 mL ethyl acetate was added and 167 μL of the transdermal adhesive DURO-TAK 87-2051 (51.5 w/v %) in 7 mL ethyl acetate with 6 μL diethylene glycol monoethyl ether was also added.
Each solution (3×3 cm) was cast onto the backing (3M™ Scotchpak™ Polyester Backing Film Laminate 9730, UK) to determine the clarity, and the saturation limit of the test agents in the adhesive mixtures.

[4] = solubility in donor solution and thermodynamic activity (Table 4); format: physicochemical; details: for solubility: organic solvent or mixture, thermodynamic from solid; for Thermodynamic activity: proposed concentration in permeation studies relative to solubility

C=C1CC[C@H](OP(=O)(O)O)C/C1=C/C=C1\CCC[C@@]2(C)C1CC[C@@H]2[C@H](C)CCCC(C)C (some centres unmarked) [Cholecalciferol phosphate disodium salt, cholecalciferol phosphate disodium salt]
% Recovery, chemical stability with extraction fluid ([1]; 0.091 mg/mL): 95.18 ± 4.82%
% Recovery, chemical stability without extraction fluid ([1]; 24 h, 1 mg/mL): 81.87 ± 2.46%
deposition in the dermis compared with cholecalciferol [2]: not statistically different
deposited in the skin ([2]; pig, 24 h, 2.5 mg/mL): 29.59±9.44 μg/cm^2
deposition in the SC ([2]; pig, 24 h, 2.5 mg/mL): 50.15±8.20 μg/cm^2
deposition in the epidermis ([2]; pig, 24 h, 2.5 mg/mL): 113.96±18.79 μg/cm^2
skin deposition, times more than the cholecalciferol ([2]; pig, 24 h, 2.5 mg/mL): 1.97 times
total penetration into / deposited in the skin ([2]; 2.5 mg/mL, 24 h): 189.99±29.10 μg/cm^2
transdermal penetration, passed all the way through the skin ([2]; vehicle PG, 24 h): 50.50±6.40 μg/cm^2
saturated concentration in patch formulation (highest loading without precipitation) [3]: 13.57 w/w %
solubility ([4]; PG, read-out: Solubility in PG): 2500 µg/mL
Thermodynamic activity [4]: 1.0

C=C1CC[C@H](O)C/C1=C/C=C1\CCC[C@]2(C)[C@@H]([C@H](C)CCCC(C)C)CC[C@@H]12 [Cholecalciferol, cholecalciferol, reference compound]
recovery at 0.091 mg/mL [1]: 91.97 ± 0.63%
recovery at 24 h, 1 mg/mL [1]: 77.5 ± 7.05%
total recovery from the skin permeation experiments ([2]; pig, 24 h, 2.5 mg/mL): 80%
recovery at 24 h, 2.5 mg/mL ([2]; pig, total recovery from the skin permeation experiments): 61%
total penetration into / deposited in the skin ([2]; 2.5 mg/mL, 24 h): 96.51±17.88 μg/cm^2
total penetration into the skin ([2]; vehicle PG:EtOH (50:50), 24 h): 80.63±13.23 μg/cm^2
deposition in the SC ([2]; vehicle PG, 24 h): 1.79±1.80 μg/cm^2
deposition in the epidermis ([2]; vehicle PG, 24 h): 40.13±24.26 μg/cm^2
transdermal penetration, passed all the way through the skin ([2]; vehicle PG, 24 h): did not pass through the tissue
solubility [4]: 3150 µg/mL (≈ 8.19 mM)
Thermodynamic activity [4]: 0.8

From US12473310B2, “Vitamin D3 phosphate and pharmaceutically acceptable salts thereof, pharmaceutical compositions comprising the compound and methods for preparing the compound” (King's College London, priority 2020, dated 2025)
